Earlier results on two compounds are cited in patent US20160074380A1, “Treatment Of Neurodegenerative Diseases With Combination Of Laquinimod And Fingolimod” (TEVA PHARMACEUTICAL INDUSTRIES LTD., priority 2014, published 2016).

The subject of the series is mouse-cultured cortical cells. The settings on record: pretreatment; Di Menna, 2013; cited from earlier work.

Regarding `CCCCCCCCc1ccc(CC[C@](N)(CO)COP(=O)(O)O)cc1` [FTY 720-P, fingolimod-phosphate], the “protection of neurons against NMDA toxicity” value is “protected neurons against NMDA toxicity”. As for `CCCCCCCCCCCCC/C=C/[C@@H](O)[C@@H](N)COP(=O)(O)O` [S1P, sphingosine 1-phosphate], the “protection of neurons against NMDA toxicity” value is on record as “protected neurons against NMDA toxicity”.
